{"source": "paper PMC9506414", "about": "“Novel 2,6,9-Trisubstituted Purines as Potent CDK Inhibitors Alleviating Trastuzumab-Resistance of HER2-Positive Breast Cancers” (Pharmaceuticals, 2022)", "assay_in_all_cases": "Kinome-wide inhibition profiling", "type_in_all_cases": "biochemical", "key": {"[1]": {"target": "T1, SIK (Homo sapiens, UniProt P57059)", "T1 construct": "purchased Reaction Biology Corp", "experimental": "(§1) In vitro CDK12/cyclinK assays for all compounds and in vitro kinome-wide inhibition profiling of 30d at 10 μM were performed by a CRO company (Reaction Biology Corp., San Diego, CA, USA)."}, "[2]": {"target": "T2, LATS2 (Homo sapiens, UniProt Q9NRM7)", "T2 construct": "purchased Reaction Biology Corp", "experimental": "as §1"}, "[3]": {"target": "T3, TBK1 (Homo sapiens, UniProt Q9UHD2)", "T3 construct": "purchased Reaction Biology Corp", "experimental": "as §1"}, "[4]": {"target": "T4, ABL2 (Homo sapiens, UniProt P42684)", "T4 construct": "purchased Reaction Biology Corp", "experimental": "as §1"}, "[5]": {"target": "T5, CSNK1G3 (Homo sapiens, UniProt Q9Y6M4)", "T5 construct": "purchased Reaction Biology Corp", "experimental": "as §1"}, "[6]": {"target": "T6, SGK1 (Homo sapiens, UniProt O00141)", "T6 construct": "purchased Reaction Biology Corp", "experimental": "as §1"}, "[7]": {"target": "T7, MINK (Homo sapiens, UniProt Q8N4C8)", "T7 construct": "purchased Reaction Biology Corp", "experimental": "as §1"}, "[8]": {"target": "T8, PCTK2 (Homo sapiens, UniProt Q00537)", "T8 construct": "purchased Reaction Biology Corp", "experimental": "as §1"}, "[9]": {"target": "T9, ULK3 (Homo sapiens, UniProt Q6PHR2)", "T9 construct": "purchased Reaction Biology Corp", "experimental": "as §1"}, "[10]": {"target": "T10, SBK1 (Homo sapiens, UniProt Q52WX2)", "T10 construct": "purchased Reaction Biology Corp", "T10 sequence (Q52WX2 whole entry)": "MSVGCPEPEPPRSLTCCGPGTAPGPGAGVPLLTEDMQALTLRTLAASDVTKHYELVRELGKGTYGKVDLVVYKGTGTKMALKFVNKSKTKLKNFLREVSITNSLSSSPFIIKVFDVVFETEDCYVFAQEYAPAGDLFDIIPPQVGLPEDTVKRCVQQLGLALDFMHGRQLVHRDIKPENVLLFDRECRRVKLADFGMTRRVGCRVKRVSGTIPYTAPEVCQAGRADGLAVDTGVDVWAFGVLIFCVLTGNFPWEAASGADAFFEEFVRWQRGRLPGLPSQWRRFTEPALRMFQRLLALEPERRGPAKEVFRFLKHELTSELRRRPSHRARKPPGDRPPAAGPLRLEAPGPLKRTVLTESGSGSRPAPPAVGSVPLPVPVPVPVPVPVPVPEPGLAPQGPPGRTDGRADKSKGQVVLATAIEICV", "experimental": "as §1"}, "[11]": {"target": "T11, JAK3 (Homo sapiens, UniProt P52333)", "T11 construct": "purchased Reaction Biology Corp", "T11 sequence (P52333 whole entry)": "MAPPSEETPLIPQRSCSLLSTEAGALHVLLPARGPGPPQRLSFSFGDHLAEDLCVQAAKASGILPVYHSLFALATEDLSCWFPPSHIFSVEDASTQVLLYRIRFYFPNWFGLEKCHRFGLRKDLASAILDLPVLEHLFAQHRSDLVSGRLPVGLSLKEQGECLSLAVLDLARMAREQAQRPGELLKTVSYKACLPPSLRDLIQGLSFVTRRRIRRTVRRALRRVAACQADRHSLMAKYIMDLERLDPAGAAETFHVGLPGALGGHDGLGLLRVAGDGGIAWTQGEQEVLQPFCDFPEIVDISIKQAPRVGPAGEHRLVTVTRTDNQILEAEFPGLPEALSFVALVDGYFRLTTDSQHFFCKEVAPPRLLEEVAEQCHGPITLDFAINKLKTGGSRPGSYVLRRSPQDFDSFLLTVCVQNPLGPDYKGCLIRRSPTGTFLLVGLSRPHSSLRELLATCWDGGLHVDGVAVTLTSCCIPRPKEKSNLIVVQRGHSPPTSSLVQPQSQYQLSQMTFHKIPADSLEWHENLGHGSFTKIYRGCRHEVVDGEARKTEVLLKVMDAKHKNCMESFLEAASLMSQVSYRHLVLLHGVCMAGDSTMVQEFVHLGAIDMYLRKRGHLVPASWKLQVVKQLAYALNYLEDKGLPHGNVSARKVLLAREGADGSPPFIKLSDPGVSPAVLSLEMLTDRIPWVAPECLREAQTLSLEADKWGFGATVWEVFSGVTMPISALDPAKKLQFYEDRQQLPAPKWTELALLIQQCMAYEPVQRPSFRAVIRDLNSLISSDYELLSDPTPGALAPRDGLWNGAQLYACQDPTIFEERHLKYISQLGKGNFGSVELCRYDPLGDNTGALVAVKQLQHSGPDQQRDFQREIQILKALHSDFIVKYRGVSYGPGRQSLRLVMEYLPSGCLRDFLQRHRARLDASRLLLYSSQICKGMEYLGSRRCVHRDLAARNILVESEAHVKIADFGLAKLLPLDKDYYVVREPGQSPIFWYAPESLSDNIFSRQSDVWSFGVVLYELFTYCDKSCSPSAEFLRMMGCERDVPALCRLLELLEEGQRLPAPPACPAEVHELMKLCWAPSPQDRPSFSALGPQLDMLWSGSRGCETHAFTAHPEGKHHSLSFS", "experimental": "as §1"}, "[12]": {"target": "T12, MLK4 (Homo sapiens, UniProt Q5TCX8)", "T12 construct": "purchased Reaction Biology Corp", "experimental": "as §1"}, "[13]": {"target": "T13, PAK6 (Homo sapiens, UniProt Q9NQU5)", "T13 construct": "purchased Reaction Biology Corp", "experimental": "as §1"}, "[14]": {"target": "T14, SYK (Homo sapiens, UniProt P43405)", "T14 construct": "purchased Reaction Biology Corp", "experimental": "as §1"}, "[15]": {"target": "T15, YSK1 (Homo sapiens, UniProt O00506)", "T15 construct": "purchased Reaction Biology Corp", "experimental": "as §1"}, "[16]": {"target": "T16, ACVRL1 (Homo sapiens, UniProt P37023)", "T16 construct": "purchased Reaction Biology Corp", "experimental": "as §1"}, "[17]": {"target": "T17, CSNK1G2 (Homo sapiens, UniProt P78368)", "T17 construct": "purchased Reaction Biology Corp", "experimental": "as §1"}, "[18]": {"target": "T18, AXL (Homo sapiens, UniProt P30530)", "T18 construct": "purchased Reaction Biology Corp", "experimental": "as §1"}, "[19]": {"target": "T19, EPHA6 (Homo sapiens, UniProt Q9UF33)", "T19 construct": "purchased Reaction Biology Corp", "T19 sequence (Q9UF33 23-1036)": "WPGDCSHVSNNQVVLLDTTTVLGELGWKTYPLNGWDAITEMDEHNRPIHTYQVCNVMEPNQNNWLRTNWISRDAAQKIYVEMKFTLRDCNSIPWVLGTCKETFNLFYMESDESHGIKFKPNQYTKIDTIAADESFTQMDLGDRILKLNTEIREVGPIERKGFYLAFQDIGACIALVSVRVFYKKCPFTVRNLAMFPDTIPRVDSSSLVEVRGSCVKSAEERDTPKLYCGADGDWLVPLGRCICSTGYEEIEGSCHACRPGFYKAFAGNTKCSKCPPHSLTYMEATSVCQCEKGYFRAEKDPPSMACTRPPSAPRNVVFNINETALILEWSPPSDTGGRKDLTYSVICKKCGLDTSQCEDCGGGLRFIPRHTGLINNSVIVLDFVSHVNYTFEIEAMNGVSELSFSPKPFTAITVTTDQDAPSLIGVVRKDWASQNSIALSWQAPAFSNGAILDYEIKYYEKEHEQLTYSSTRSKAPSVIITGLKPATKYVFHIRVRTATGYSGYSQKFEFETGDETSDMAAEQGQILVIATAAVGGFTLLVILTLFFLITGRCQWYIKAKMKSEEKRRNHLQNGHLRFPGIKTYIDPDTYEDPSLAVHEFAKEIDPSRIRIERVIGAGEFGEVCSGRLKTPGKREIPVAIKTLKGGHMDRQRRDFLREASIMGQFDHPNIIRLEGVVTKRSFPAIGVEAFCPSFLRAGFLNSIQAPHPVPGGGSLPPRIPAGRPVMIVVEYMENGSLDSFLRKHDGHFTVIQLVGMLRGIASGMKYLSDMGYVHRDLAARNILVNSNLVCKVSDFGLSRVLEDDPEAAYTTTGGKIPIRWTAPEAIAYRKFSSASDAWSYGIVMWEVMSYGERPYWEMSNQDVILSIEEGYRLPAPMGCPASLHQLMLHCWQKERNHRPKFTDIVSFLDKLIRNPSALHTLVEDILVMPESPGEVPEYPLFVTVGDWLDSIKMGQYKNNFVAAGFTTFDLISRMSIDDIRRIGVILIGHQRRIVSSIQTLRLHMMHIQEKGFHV", "experimental": "as §1"}, "[20]": {"target": "T20, LTK (Homo sapiens, UniProt P29376)", "T20 construct": "purchased Reaction Biology Corp", "experimental": "as §1"}, "[21]": {"target": "T21, MST3 (Homo sapiens, UniProt Q9Y6E0)", "T21 construct": "purchased Reaction Biology Corp", "experimental": "as §1"}, "[22]": {"target": "T22, EPHA2 (Homo sapiens, UniProt P29317)", "T22 construct": "purchased Reaction Biology Corp", "experimental": "as §1"}, "[23]": {"target": "T23, FRK (Homo sapiens, UniProt P42685)", "T23 construct": "purchased Reaction Biology Corp", "experimental": "as §1"}, "[24]": {"target": "T24, GSK3b (Homo sapiens, UniProt P49841)", "T24 construct": "purchased Reaction Biology Corp", "experimental": "as §1"}, "[25]": {"target": "T25, MYO3A (Homo sapiens, UniProt Q8NEV4)", "T25 construct": "purchased Reaction Biology Corp", "experimental": "as §1"}, "[26]": {"target": "T26, PKCb1 (Homo sapiens, UniProt P05771)", "T26 construct": "purchased Reaction Biology Corp", "experimental": "as §1"}, "[27]": {"target": "T27, PRKCG (Homo sapiens, UniProt P05129)", "T27 construct": "purchased Reaction Biology Corp", "experimental": "as §1"}, "[28]": {"target": "T28, CAMKK2 (Homo sapiens, UniProt Q96RR4)", "T28 construct": "purchased Reaction Biology Corp", "T28 sequence (Q96RR4 whole entry)": "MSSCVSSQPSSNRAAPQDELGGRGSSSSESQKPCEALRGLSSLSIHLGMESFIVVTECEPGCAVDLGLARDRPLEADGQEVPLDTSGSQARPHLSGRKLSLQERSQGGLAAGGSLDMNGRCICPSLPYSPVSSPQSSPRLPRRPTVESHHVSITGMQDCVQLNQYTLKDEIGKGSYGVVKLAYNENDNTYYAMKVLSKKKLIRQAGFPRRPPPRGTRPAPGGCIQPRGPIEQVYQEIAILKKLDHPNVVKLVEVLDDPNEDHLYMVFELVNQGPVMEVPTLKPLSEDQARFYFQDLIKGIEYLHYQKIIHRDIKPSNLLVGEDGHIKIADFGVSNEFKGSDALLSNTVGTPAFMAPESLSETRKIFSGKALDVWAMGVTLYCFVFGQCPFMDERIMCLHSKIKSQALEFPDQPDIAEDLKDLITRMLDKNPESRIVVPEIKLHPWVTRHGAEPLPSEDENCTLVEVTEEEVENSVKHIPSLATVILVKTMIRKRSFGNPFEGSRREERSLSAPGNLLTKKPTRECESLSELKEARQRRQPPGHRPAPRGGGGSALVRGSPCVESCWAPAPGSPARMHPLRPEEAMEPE", "experimental": "as §1"}, "[29]": {"target": "T29, DMPK (Homo sapiens, UniProt Q09013)", "T29 construct": "purchased Reaction Biology Corp", "experimental": "as §1"}, "[30]": {"target": "T30, SRPK1 (Homo sapiens, UniProt Q96SB4)", "T30 construct": "purchased Reaction Biology Corp", "experimental": "as §1"}, "[31]": {"target": "T31, NEK9 (Homo sapiens, UniProt Q8TD19)", "T31 construct": "purchased Reaction Biology Corp", "experimental": "as §1"}, "[32]": {"target": "T32, IRAK4 (Homo sapiens, UniProt Q9NWZ3)", "T32 construct": "purchased Reaction Biology Corp", "experimental": "as §1"}, "[33]": {"target": "T33, INSRR (Homo sapiens, UniProt P14616)", "T33 construct": "purchased Reaction Biology Corp", "experimental": "as §1"}, "[34]": {"target": "T34, ERK1 (Homo sapiens, UniProt P27361)", "T34 construct": "purchased Reaction Biology Corp", "T34 sequence (P27361 whole entry)": "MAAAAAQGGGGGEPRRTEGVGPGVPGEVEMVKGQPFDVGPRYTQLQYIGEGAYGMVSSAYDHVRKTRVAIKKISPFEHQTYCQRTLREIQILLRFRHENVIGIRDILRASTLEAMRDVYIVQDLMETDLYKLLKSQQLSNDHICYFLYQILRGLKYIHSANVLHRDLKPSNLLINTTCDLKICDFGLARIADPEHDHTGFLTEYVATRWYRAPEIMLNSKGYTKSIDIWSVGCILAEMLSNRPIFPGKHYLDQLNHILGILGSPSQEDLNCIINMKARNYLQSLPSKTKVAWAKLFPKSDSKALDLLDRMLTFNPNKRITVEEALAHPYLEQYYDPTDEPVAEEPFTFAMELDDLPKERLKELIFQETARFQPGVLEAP", "experimental": "as §1"}, "[35]": {"target": "T35, MAST3 (Homo sapiens, UniProt O60307)", "T35 construct": "purchased Reaction Biology Corp", "T35 sequence (O60307 whole entry)": "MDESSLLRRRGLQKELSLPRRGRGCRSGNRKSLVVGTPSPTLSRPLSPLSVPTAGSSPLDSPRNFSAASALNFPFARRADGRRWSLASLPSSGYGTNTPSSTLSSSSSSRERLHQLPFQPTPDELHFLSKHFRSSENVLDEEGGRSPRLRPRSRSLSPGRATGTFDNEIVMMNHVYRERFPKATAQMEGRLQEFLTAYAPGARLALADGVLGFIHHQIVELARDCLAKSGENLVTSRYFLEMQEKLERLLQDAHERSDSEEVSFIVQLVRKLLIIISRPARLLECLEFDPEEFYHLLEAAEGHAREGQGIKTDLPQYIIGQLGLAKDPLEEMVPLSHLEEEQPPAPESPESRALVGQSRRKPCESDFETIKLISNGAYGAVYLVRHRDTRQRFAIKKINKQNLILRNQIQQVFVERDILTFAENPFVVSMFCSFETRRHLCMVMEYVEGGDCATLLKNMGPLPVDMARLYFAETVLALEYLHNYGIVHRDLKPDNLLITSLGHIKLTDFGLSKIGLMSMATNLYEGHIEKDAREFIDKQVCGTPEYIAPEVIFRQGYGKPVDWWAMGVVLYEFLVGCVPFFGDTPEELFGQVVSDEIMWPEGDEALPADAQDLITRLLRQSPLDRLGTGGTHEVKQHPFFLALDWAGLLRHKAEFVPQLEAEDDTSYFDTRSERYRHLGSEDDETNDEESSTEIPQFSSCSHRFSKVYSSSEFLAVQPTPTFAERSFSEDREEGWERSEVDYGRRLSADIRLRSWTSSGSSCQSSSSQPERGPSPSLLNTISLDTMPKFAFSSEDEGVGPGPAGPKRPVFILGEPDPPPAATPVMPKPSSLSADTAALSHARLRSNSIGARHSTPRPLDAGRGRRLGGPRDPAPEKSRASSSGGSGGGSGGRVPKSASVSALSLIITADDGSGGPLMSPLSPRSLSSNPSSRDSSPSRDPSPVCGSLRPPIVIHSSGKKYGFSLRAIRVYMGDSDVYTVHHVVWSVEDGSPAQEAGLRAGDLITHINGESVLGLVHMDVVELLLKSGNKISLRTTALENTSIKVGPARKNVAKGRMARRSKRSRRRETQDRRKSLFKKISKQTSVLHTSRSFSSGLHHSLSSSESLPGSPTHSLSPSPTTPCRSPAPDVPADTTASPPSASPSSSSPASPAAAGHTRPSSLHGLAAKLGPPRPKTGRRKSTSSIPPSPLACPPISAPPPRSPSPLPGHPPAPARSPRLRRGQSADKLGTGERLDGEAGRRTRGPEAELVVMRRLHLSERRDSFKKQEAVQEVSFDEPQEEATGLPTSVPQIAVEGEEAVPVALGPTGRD", "experimental": "as §1"}, "[36]": {"target": "T36, CSNK1G1 (Homo sapiens, UniProt Q9HCP0)", "T36 construct": "purchased Reaction Biology Corp", "experimental": "as §1"}, "[37]": {"target": "T37, CAMK1d (Homo sapiens, UniProt Q8IU85)", "T37 construct": "purchased Reaction Biology Corp", "experimental": "as §1"}, "[38]": {"target": "T38, PDPK1 (Homo sapiens, UniProt O15530)", "T38 construct": "purchased Reaction Biology Corp", "experimental": "as §1"}, "[39]": {"target": "T39, TRKC (Homo sapiens, UniProt Q16288)", "T39 construct": "purchased Reaction Biology Corp", "experimental": "as §1"}, "[40]": {"target": "T40, DYRK3 (Homo sapiens, UniProt O43781)", "T40 construct": "purchased Reaction Biology Corp", "experimental": "as §1"}, "[41]": {"target": "T41, RPS6KA5(Kin.Dom.1-N-term) (Homo sapiens, UniProt O75582)", "T41 construct": "RPS6KA5(Kin.Dom.1-N-term); purchased Reaction Biology Corp", "experimental": "as §1"}, "[42]": {"target": "T42, BRSK2 (Homo sapiens, UniProt Q8IWQ3)", "T42 construct": "purchased Reaction Biology Corp", "experimental": "as §1"}, "[43]": {"target": "T43, PKN2 (Homo sapiens, UniProt Q16513)", "T43 construct": "purchased Reaction Biology Corp", "experimental": "as §1"}}, "data": [{"smiles": "CCn1cnc2c(NCc3ccc(-c4ccccn4)nc3)nc(-c3ccc(N)nc3)nc21", "note": "[Compound 30d, N-([2,2′-Bipyridin]-5-ylmethyl)-2-(6-aminopyridin-3-yl)-9-ethyl-9H-purin-6-amine]", "values": [{"measurement": "remaining activity at 10 µM", "setting": "[1]", "value": 56.3, "unit": "%"}, {"measurement": "remaining activity at 10 µM", "setting": "[2]", "value": 77.4, "unit": "%"}, {"measurement": "remaining activity at 10 µM", "setting": "[3]", "value": 55, "unit": "%"}, {"measurement": "remaining activity at 10 µM", "setting": "[4]", "value": 56.1, "unit": "%"}, {"measurement": "remaining activity at 10 µM", "setting": "[5]", "value": 24.4, "unit": "%"}, {"measurement": "remaining activity at 10 µM", "setting": "[6]", "value": 84.9, "unit": "%"}, {"measurement": "remaining activity at 10 µM", "setting": "[7]", "value": 101, "unit": "%"}, {"measurement": "remaining activity at 10 µM", "setting": "[8]", "value": 7.3, "unit": "%"}, {"measurement": "remaining activity at 10 µM", "setting": "[9]", "value": 91.8, "unit": "%"}, {"measurement": "remaining activity at 10 µM", "setting": "[10]", "value": 94.5, "unit": "%"}, {"measurement": "remaining activity at 10 µM", "setting": "[11]", "value": 99.7, "unit": "%"}, {"measurement": "remaining activity at 10 µM", "setting": "[12]", "value": 114, "unit": "%"}, {"measurement": "remaining activity at 10 µM", "setting": "[13]", "value": 57.2, "unit": "%"}, {"measurement": "remaining activity at 10 µM", "setting": "[14]", "value": 48.4, "unit": "%"}, {"measurement": "remaining activity at 10 µM", "setting": "[15]", "value": 23.1, "unit": "%"}, {"measurement": "remaining activity at 10 µM", "setting": "[16]", "value": 105, "unit": "%"}, {"measurement": "remaining activity at 10 µM", "setting": "[17]", "value": 27, "unit": "%"}, {"measurement": "remaining activity at 10 µM", "setting": "[18]", "value": 44.2, "unit": "%"}, {"measurement": "inhibition at 10 µM", "setting": "[19]", "value": "> 95", "unit": "%"}, {"measurement": "remaining activity at 10 µM", "setting": "[19]", "value": 3, "unit": "%"}, {"measurement": "remaining activity at 10 µM", "setting": "[20]", "value": 73.6, "unit": "%"}, {"measurement": "remaining activity at 10 µM", "setting": "[21]", "value": 47, "unit": "%"}, {"measurement": "remaining activity at 10 µM", "setting": "[22]", "value": 42.3, "unit": "%"}, {"measurement": "remaining activity at 10 µM", "setting": "[23]", "value": 43.5, "unit": "%"}, {"measurement": "remaining activity at 10 µM", "setting": "[24]", "value": 5.8, "unit": "%"}, {"measurement": "remaining activity at 10 µM", "setting": "[25]", "value": 71.3, "unit": "%"}, {"measurement": "remaining activity at 10 µM", "setting": "[26]", "value": 89.9, "unit": "%"}, {"measurement": "remaining activity at 10 µM", "setting": "[27]", "value": 49.6, "unit": "%"}, {"measurement": "remaining activity at 10 µM", "setting": "[28]", "value": 10.6, "unit": "%"}, {"measurement": "remaining activity at 10 µM", "setting": "[29]", "value": 90.4, "unit": "%"}, {"measurement": "remaining activity at 10 µM", "setting": "[30]", "value": 54.3, "unit": "%"}, {"measurement": "remaining activity at 10 µM", "setting": "[31]", "value": 90, "unit": "%"}, {"measurement": "remaining activity at 10 µM", "setting": "[32]", "value": 94.8, "unit": "%"}, {"measurement": "remaining activity at 10 µM", "setting": "[33]", "value": 31.1, "unit": "%"}, {"measurement": "remaining activity at 10 µM", "setting": "[34]", "value": 9.4, "unit": "%"}, {"measurement": "remaining activity at 10 µM", "setting": "[35]", "value": 39.3, "unit": "%"}, {"measurement": "remaining activity at 10 µM", "setting": "[36]", "value": 29.8, "unit": "%"}, {"measurement": "remaining activity at 10 µM", "setting": "[37]", "value": 58, "unit": "%"}, {"measurement": "remaining activity at 10 µM", "setting": "[38]", "value": 105, "unit": "%"}, {"measurement": "remaining activity at 10 µM", "setting": "[39]", "value": 54.9, "unit": "%"}, {"measurement": "remaining activity at 10 µM", "setting": "[40]", "value": 58.6, "unit": "%"}, {"measurement": "remaining activity at 10 µM", "setting": "[41]", "value": 80.5, "unit": "%"}, {"measurement": "remaining activity at 10 µM", "setting": "[42]", "value": 97.5, "unit": "%"}, {"measurement": "remaining activity at 10 µM", "setting": "[43]", "value": 85.8, "unit": "%"}]}]}
